Assay: molar heat capacity at constant pressure
Conditions: 101.33 kPa, Liquid, heat bridge-scanning calorimeter

CCCCn1cc[n+](C)c1.F[P-](F)(F)(F)(F)F [1-butyl-3-methylimidazolium hexafluorophosphate]
Conditions | molar heat capacity at constant pressure [J/K/mol]
380.71 K | 456.97
380.84 K | 457.53
380.98 K | 457.25
381.25 K | 457.53
381.38 K | 456.97
381.51 K | 456.68
381.63 K | 456.68
381.76 K | 456.68
381.89 K | 456.97
382.01 K | 457.53
382.14 K | 457.82
382.27 K | 457.53
382.56 K | 457.53
382.68 K | 458.39
382.81 K | 457.82
382.94 K | 458.1
383.06 K | 458.39
383.19 K | 458.67
383.32 K | 458.67
383.45 K | 458.39
383.57 K | 457.82
383.7 K | 457.82
383.83 K | 457.53
384.1 K | 458.1
384.23 K | 457.82
384.36 K | 458.1
384.48 K | 458.67
384.61 K | 459.24
384.74 K | 458.95
384.86 K | 458.39
384.99 K | 457.82
385.12 K | 458.1
385.41 K | 459.52
385.54 K | 460.09
385.66 K | 459.81
385.79 K | 459.52
385.92 K | 459.24
386.05 K | 459.52
386.18 K | 460.09
386.3 K | 460.09
386.43 K | 459.81
386.56 K | 460.09
386.69 K | 460.38
386.97 K | 460.38
387.1 K | 460.09
387.23 K | 460.09
387.36 K | 459.81
387.49 K | 460.09
387.61 K | 460.38
387.74 K | 460.38
387.87 K | 460.09
388 K | 460.09
388.28 K | 461.23
388.41 K | 460.94
388.54 K | 461.23
388.67 K | 461.51
388.79 K | 461.51
388.92 K | 461.51
389.05 K | 461.51
389.18 K | 461.8
389.3 K | 461.8
389.43 K | 461.51
389.56 K | 461.8
389.84 K | 461.8
389.96 K | 462.08
390.09 K | 462.08
390.22 K | 462.36
390.35 K | 462.93
390.47 K | 462.93
390.6 K | 463.79
390.73 K | 464.07
390.86 K | 463.5
391.15 K | 463.5
391.27 K | 464.35
391.4 K | 464.64
391.53 K | 464.35
391.66 K | 464.64
391.79 K | 464.07
391.92 K | 464.07
392.05 K | 463.79
392.17 K | 463.79
392.3 K | 464.35
392.43 K | 464.92
392.71 K | 464.07
392.84 K | 464.07
392.97 K | 464.07
393.11 K | 464.07
393.24 K | 464.07
393.36 K | 464.35
393.49 K | 464.35
393.62 K | 464.64
393.75 K | 465.21
394.04 K | 465.21
394.17 K | 465.21
394.3 K | 465.49
394.42 K | 465.49
394.55 K | 465.77
394.68 K | 466.34
394.81 K | 467.48
394.94 K | 467.48
395.07 K | 467.2
395.2 K | 466.63
395.32 K | 466.63
395.6 K | 466.91
395.73 K | 466.91
395.86 K | 467.2
395.99 K | 468.05
396.12 K | 468.33
396.24 K | 468.33
396.37 K | 468.33
396.5 K | 468.62
396.63 K | 469.47
396.92 K | 469.19
397.05 K | 468.62
397.18 K | 468.9
397.31 K | 468.9
397.44 K | 469.19
397.56 K | 469.19
397.69 K | 469.47
397.82 K | 469.19
397.95 K | 469.19
398.08 K | 469.47
398.21 K | 469.47
398.49 K | 469.19
398.62 K | 469.47
398.75 K | 470.04
398.88 K | 470.32
399.01 K | 470.61
399.15 K | 470.61
399.28 K | 470.89
399.41 K | 471.17
399.53 K | 472.03
399.82 K | 471.17
399.95 K | 470.89
400.08 K | 470.89
400.21 K | 470.61
400.34 K | 471.17
400.47 K | 471.74
400.6 K | 471.74
400.73 K | 472.6
400.86 K | 472.03
400.99 K | 471.74
401.12 K | 471.74
401.41 K | 472.6
401.54 K | 472.31
401.67 K | 471.74
401.8 K | 472.03
401.93 K | 472.03
402.06 K | 472.31
402.19 K | 472.03
402.32 K | 471.46
402.45 K | 471.46
402.74 K | 471.74
402.87 K | 471.46
403 K | 471.74
403.13 K | 472.03
403.26 K | 472.03
403.39 K | 472.03
403.52 K | 472.03
403.65 K | 472.03
403.78 K | 472.31
403.91 K | 472.31
404.04 K | 472.6
404.32 K | 472.31
404.45 K | 472.31
404.58 K | 472.31
404.71 K | 473.16
404.84 K | 473.73
404.98 K | 473.73
405.11 K | 473.16
405.24 K | 472.88
405.38 K | 472.03
405.67 K | 472.88
405.8 K | 473.73
405.93 K | 474.02
406.06 K | 474.02
406.2 K | 473.73
406.33 K | 473.45
406.46 K | 472.88
406.59 K | 472.88
406.72 K | 473.16
406.85 K | 473.45
406.98 K | 473.73
407.27 K | 474.02
407.4 K | 473.73
407.53 K | 473.45
407.66 K | 473.45
407.79 K | 473.16
407.92 K | 473.16
408.05 K | 472.88
408.19 K | 473.45

— the NIST ThermoML archive (doi:10.1021/je034102r)
